Measurements as given in patent US12599647B2, “Peptide amide composition and preparation method therefor” (Xizang Haisco Pharmaceutical Co., Ltd., priority 2019, dated 2026).
Several values for one entry are separate records, joined by “and”; a condition that tells them apart may be missing. Equal entries are not always repeated.

Assays:
Type in all cases: physicochemical
[1] = Related substances in compound II solutions at different pH values (Table 1); conditions: aqueous solutions, pH adjusted with glacial acetic acid or tartaric acid; 40°C±2°C, 10 days
Experimental: (§1) 750 ml of water for injection was measured and taken; nitrogen was charged beneath the surface of the liquid for about 20 min; and the water temperature was controlled to be 50° C. or less. 37.5 mg of compound II was weighed, added to the above-mentioned water for injection and stirred to dissolution and clarification to obtain solution (1). Solution (1) was adjusted with glacial acetic acid (source: Chengdu Kelong Chemical Co., Ltd.) and tartaric acid to different pH values, respectively, and aqueous solutions containing compound II at different pH values were obtained. The aqueous solutions were placed under the conditions of 40° C.±2° C. for 10 days, and the performance of related substances in the solutions at different pH values was examined (including the solution at a pH value not being adjusted), with data shown in Table 1.

[2] = Related substances in compound II solutions at pH range 3-5.5 (Table 2); conditions: aqueous solution, pH adjusted with glacial acetic acid; 40°C±2°C, 10 days
Experimental: as §1, with “Considering the operability of industrial production, we examined the stability of solutions at a pH range of 3-5.5. 750” for “750”, “Ltd.)” for “Ltd.) and tartaric acid”, “values,” for “values, respectively,”, “examined,” for “examined (including the solution at a pH value not being adjusted),”, “2.” for “1.”

[3] = Related substances of formulation solutions for injection after high temperature acceleration at 40°C; conditions: compound II raw material (stored refrigerated 2°C-8°C), control, 0 days
Experimental: The sample of Formulation 1 solution for injection was placed under the conditions of 40° C.±2° C. for 5 days; compound II raw material (stored under refrigerated conditions of 2° C.-8° C.) was used as a control; and changes of related substances in the sample were examined, with data shown in Table 3.
Formulation 2 solution for injection was placed under the conditions of 40° C. 2° C. for 5 days; compound II raw material (stored under refrigerated conditions of 2° C.-8° C.) was used as a control; and changes of related substances in the sample were examined, with data shown in Table 4.
Formulation 3 solution for injection was placed under the conditions of 40° C. 2° C. for 5 days; compound II raw material (stored under refrigerated conditions of 2° C.-8° C.) was used as a control; and changes of related substances in the sample were examined, with data shown in Table 5.
Formulation 4 solution for injection was placed under the conditions of 40° C. 2° C. for 9 days; compound II raw material (stored under refrigerated conditions of 2° C.-8° C.) was used as a control; and changes of related substances in the sample were examined, with data shown in Table 6.
Formulation 5 solution for injection was placed under the conditions of 40° C. […]

SMILES: CC(=O)N1CC2(CCN(C(=O)[C@@H](CCCCN)NC(=O)[C@@H](CC(C)C)NC(=O)[C@@H](Cc3ccccc3)NC(=O)[C@H](N)Cc3ccccc3)CC2)C1 [Compound II]
- pH value of best stability [1]: about 4
- pH range at which the product is stable [2]: 3-5.5
- Total impurity (%) [3]: 1.098% and 1.238%
